The target in this experiment is Acyl-protein thioesterase 1 (Mus musculus) (UniProt P97823). The experiment in a line: in vivo LYPLA1 target engagement in mouse tissues, late-stage follow-up, in vivo study for LYPLA1/LYPLA2 inhibitor project, mouse liver, brain, kidney proteomes, fluorescence gel (AID 743134). Conditions: C57BL6 mice i.p., tissue gel-based ABPP FP-Rh, 4 h.

The source made the active and inactive calls.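 Rule for the calls: active = compound cutting LYPLA1 and LYPLA2 activity by half or more in mouse liver, kidney or brain after 5 mg/kg; inactive = the rest.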

Sequence of Acyl-protein thioesterase 1 (Mus musculus) (P97823 whole entry, looked up): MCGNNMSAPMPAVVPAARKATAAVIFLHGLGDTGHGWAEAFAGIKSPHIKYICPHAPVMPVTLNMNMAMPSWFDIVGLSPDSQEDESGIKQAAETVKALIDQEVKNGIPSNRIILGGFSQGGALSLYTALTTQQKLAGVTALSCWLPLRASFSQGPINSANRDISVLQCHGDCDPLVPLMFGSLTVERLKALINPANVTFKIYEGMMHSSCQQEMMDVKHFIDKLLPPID

In the case of `O=C(ON1C(=O)C2CN(C(=O)N3CCOCC3)CCN2C1=O)N1CCC(CCc2ccc(Cl)cc2)CC1` (stereo not drawn), the outcome (Brain soluble proteome) was inactive. Further, the outcome was “active” (Kidney soluble proteome) and “active” (Liver soluble proteome).

(Values after PubChem BioAssay AID743134 (The Scripps Research Institute Molecular Screening Center, 2013).)
